The source of these data is patent publication US5104891A, “Cycloheptimidazolone compounds as angiotensin II antagonists for control of hypertension” (G. D. Searle & Co., priority 1989, dated 1992).

Assay [1] addresses angiotensin II receptor (rat uterine membranes). As to the kind of experiment: Angiotensin II binding assay (125I-angiotensin II, rat uterine membranes). As for the experimental part: Other chemicals were obtained from Sigma Chemical Co.
Rat uterine membranes were prepared from fresh tissue. All procedures were carried out at 4° C. Uteri were stripped of fat and homogenized using a Polytron for 25 sec in 20 volumes of ice-cold Dulbecco's phosphate-buffered saline pH 7.5 (Gibso Labs) containing 5 mM EDTA. The homogenate was centrifuged at 1500× g for 20 min., and the supernatant was recentrifuged at 100,000× g for 60 min. The pellet was resuspended in buffer consisting of 2 mM EDTA and 50 mM Tris-HCl, pH 7.5 to a final protein concentration of 4 mg/ml.
The reaction was initiated by the addition of 50 μg of membrane protein and the mixture was incubated at 25° C. for 30 min. The incubation was terminated with ice-cold 50 mM Tris-HCl; pH 7.5 and the mixture was filtered to separate membrane-bound labelled peptide from the free ligand. The incubation tube and filter were washed with ice-cold buffer. Filters were assayed for radioactivity in a Micromedic gamma counter. Nonspecific binding was defined as binding in the presence of 10 μM of unlabelled AII. Specific binding was calculated as total binding minus nonspecific binding. Binding data was analyzed by a nonlinear least-squares curve fitting program.

Assay [2] has as its target T1, angiotensin II (AII) contraction of rabbit aortic rings (Oryctolagus cuniculus, UniProt P34976).
T1 construct: The thoracic aorta was removed, cleaned of adherent fat and connective tissue and then cut into 3-mm ring segments; from tissue; host or cells: rabbit thoracic aorta rings, endothelium removed
T1 sequence (P34976 1-359): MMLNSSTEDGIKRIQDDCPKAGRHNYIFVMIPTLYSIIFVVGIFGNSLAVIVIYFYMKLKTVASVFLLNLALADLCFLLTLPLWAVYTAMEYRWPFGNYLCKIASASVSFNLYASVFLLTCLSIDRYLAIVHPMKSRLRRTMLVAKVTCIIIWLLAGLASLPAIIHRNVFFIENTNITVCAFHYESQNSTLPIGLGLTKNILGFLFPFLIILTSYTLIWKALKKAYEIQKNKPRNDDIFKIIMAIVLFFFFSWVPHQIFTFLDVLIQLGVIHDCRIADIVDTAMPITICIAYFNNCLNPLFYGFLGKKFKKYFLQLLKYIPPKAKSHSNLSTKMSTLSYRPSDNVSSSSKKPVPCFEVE
As to the kind of experiment: In vitro myotropic screening assay for AII antagonists in rabbit aortic rings. The class given is cell-based. The following applies: pA2 determined according to Schild. On the procedure: The compounds of the invention were tested for agonist and antagonist activity in rabbit aortic rings. Male New Zealand white rabbits (2-2.5 kg) were sacrificed using an overdose of pentobarbital and exsanguinated via the carotid arteries. The thoracic aorta was removed, cleaned of adherent fat and connective tissue and then cut into 3-mm ring segments. The endothelium was removed from the rings by gently sliding a rolled-up piece of filter paper into the vessel lumen. The rings were then mounted in a water-jacketed tissue bath, maintained at 37° C., between a moveable and a fixed stainless steel wire, with the moveable end attached to an FT03 Grass transducer coupled to a Model 7D Grass Polygraph for recording isometric force responses. […] The preparations were equilibrated for one hour before approximately one gram of passive tension was placed on the rings. For the agonist assay, the rings were exposed to increasing concentrations of the test compound, at 30 minute intervals, during which time the tissue was washed three times with 20 ml of fresh Krebs solution. For the measurement of antagonistic activity, paired rings from the same rabbits were used; one was exposed to increasing concentrations of AII (at 30 minute intervals), and a second ring was exposed to increasing concentrations of AII in the presence of the test compound which was added five minutes prior to the addition of AII. The concentration response curves for AII in the presence of the antagonist were evaluated in terms of the percent of the maximal contraction of the control ring exposed only to AII. pD2 values for AII were calculated from the AII concentration response curves while pA2s were determined according to Schild.

Setting [3] is: IC50, 125I-AII, rat uterine membranes, 25° C., 30 min.

One may read the IC50 as the concentration at which inhibition is half-maximal. A higher IC50 goes with weaker potency. What is called pA2 is the negative logarithm of the molar antagonist concentration that doubles the agonist concentration needed for the same response. For “4'-[[5(7)-benzyl-7(5)hydrido-2-butyl-6(1H)-cycloheptimidazolon-1-yl]methyl]-[1,1'-biphenyl]-2-carboxylic acid [Example 14]”, the concentration for half-maximal inhibition (IC50) is 2300 nM in assay [1] (setting [3]) and 108 nM in assay [1] (meaning not explained). Moreover, the pA2 in assay [2] is 6.1.
A word on the Kb: it is the equilibrium dissociation constant of an antagonist, usually derived from a functional assay. Low readings indicate a more potent antagonist, high ones a less potent antagonist. In the case of `CCCCc1nc2ccc(=O)ccc2n1Cc1ccc(-c2ccccc2C(=O)O)cc1` [Example 3, 4'-[[2-butyl-6(1H)-cycloheptimidazolon-1-yl]methyl]-[1,1'-biphenyl]-2-carboxylic acid], the IC50 in assay [1] (setting [3]) was 1400 nM; in assay [1] (meaning not explained), 24 nM. Further, the Kb in assay [2] was 1260 nM.
In the same order, the values of `CCCc1nc2cc(C(=O)O)c(=O)c(C(=O)O)cc2n1Cc1ccc(-c2ccccc2C(=O)O)cc1` [Example 4, 4'-[[5,7-dicarboxy-2-propyl-6(1H)-cycloheptimidazolon-1-yl]methyl]-[1,1'-biphenyl]-2-carboxylic acid] are 2300 nM, 550 nM and 1000 nM.
In the same order, the values of `CCCc1nc2ccc(=O)ccc2n1Cc1ccc(-c2ccccc2C(=O)O)cc1` [Example 5, 4'-[[2-propyl-6(1H)-cycloheptimidazolon-1-yl]methyl]-[1,1'-biphenyl]-2-carboxylic acid] are 1400 nM, 349 nM and 1260 nM.
For `CCCCCc1nc2cc(C)c(=O)c(C)cc2n1Cc1ccc(-c2ccccc2C(=O)O)cc1` [Example 6, 4'-[[5,7-dimethyl-2-pentyl-6(1H)-cycloheptimidazolon-1-yl]methyl]-[1,1'-biphenyl]-2-carboxylic acid] the same measures were 2500 nM, 230 nM and 7940 nM.
With `CCCCc1nc2cc(-c3ccccc3)c(=O)c(-c3ccccc3)cc2n1Cc1ccc(-c2ccccc2C(=O)O)cc1` [Example 7, 4'-[[5,7-diphenyl-2-butyl-6(1H)-cycloheptimidazolon-1-yl]methyl]-[1,1'-biphenyl]-2-carboxylic acid], the IC50 in assay [1] (setting [3]) was 800 nM; in assay [1] (meaning not explained), 117 nM. The compound further had an antagonist dissociation constant (Kb) in assay [2] of 316 nM.
Turning to `CCCCc1nc2cc(C(C)C)c(=O)c(-c3ccccc3)cc2n1Cc1ccc(-c2ccccc2C(=O)O)cc1` [Example 10, 4'-[[5(7)-isopropyl-7(5)phenyl-2-butyl-6(1H)-cycloheptimidazolon-1-yl]methyl]-[1,1'-biphenyl]-2-carboxylic acid], the results for the IC50 in assay [1] (setting [3]) and in assay [1] (meaning not explained) were 2000 nM and 161 nM, respectively. In addition, the pA2 in assay [2] is reported as 5.6.
As to `CCCCc1nc2cc(O)c(=O)c(Cl)cc2n1Cc1ccc(-c2ccccc2C(=O)O)cc1` [Example 11, 4'-[[5(7)-hydroxy-7(5)chloro-2-butyl-6(1H)-cycloheptimidazolon-1-yl]methyl]-[1,1'-biphenyl]-2-carboxylic acid], the 50% inhibitory concentration (IC50) in assay [1] (setting [3]) came to 7100 nM. Moreover, the pA2 in assay [2] stood at 6.4.
Take `CCCCc1nc2cc(C(=O)O)c(=O)c(COC)cc2n1Cc1ccc(-c2ccccc2C(=O)O)cc1` [Example 12, 4'-[[5(7)-carboxy-7(5)methoxymethyl-2-butyl-6(1H)-cycloheptimidazolon-1-yl]methyl]-[1,1'-biphenyl]-2-carboxylic acid]: the IC50 amounted to 4000 nM in assay [1] (setting [3]) and 390 nM in assay [1] (meaning not explained). The pA2 in assay [2] was found to be 6.8.
In the same order, the values of `CCCc1nc2ccc(=O)c(Cc3ccccc3)cc2n1Cc1ccc(-c2ccccc2C(=O)O)cc1` [Example 13, 4'-[[5(7)-hydrido-7(5)benzyl-2-propyl-6(1H)-cycloheptimidazolon-1-yl]methyl]-[1,1'-biphenyl]-2-carboxylic acid] are 1900 nM, 38 nM and 5.5.
With `CCCCCc1nc2cc(C)c(=O)c(C)cc2n1Cc1ccc(-c2ccccc2-c2nn[nH]n2)cc1` [Example 20, 1-{2'-[(tetrazol-5-yl)-biphenyl-4-yl]methyl}-2-pentyl-5,7-dimethyl-cycloheptimidazolone], the IC50 was determined as 710 nM in assay [1] (setting [3]) and 324 nM in assay [1] (meaning not explained).
